The results in this text go back to US6057317A, “Heterocyclic compounds” (Adir et Compagnie, priority 1997, dated 2000).

In general, Ki refers to the equilibrium dissociation constant of an inhibitor or competing ligand from its target.

The target in assay [1] is imidazoline I1 receptor. Put plainly: Measurement of in vitro affinity for the I1 receptor (radioligand displacement). The format is binding. The note with it: [3H] clonidine + 10 μM noradrenaline; bovine lateral reticulated nucleus. Here is the method:
(§1) The profile of binding to the imidazoline I1 and I2 receptors was determined for the compounds of the invention by evaluating the ability of those compounds to displace specific radioligands of the receptors in question.
(§2) The following Table indicates the radioligand used to label each receptor, the compound and the concentration selected to determine the non-specific fraction, and the tissue selected. […]
10 μM reticulated nucleus
For orientation: Displacement assays read how much labelled ligand stays bound in the presence of the test substance.

For assay [2], the target named is imidazoline I2 receptor. As to the kind of experiment: Measurement of in vitro affinity for the I2 receptor (radioligand displacement). The format is binding. The note with it: [3H] idazoxan + 10 μM noradrenaline; renal cortex of rabbit. Here is the method:
as §1, §2

In assay [3] the test system is SHR rats. As to the kind of experiment: Antihypertensive activity in conscious rats. The format is in vivo, rat. As to conditions: oral, dose of 15 mg/kg. As for the experimental part:
The tests were carried out in SHR rats. The animals are anaesthetised. A heparinised catheter is introduced into the left carotid artery and connected to a recording apparatus so as to measure the systolic and diastolic arterial pressure and the heart rate. The animals are returned to their cage and the tests are carried out after 24 hours.
The parameters to be measured stabilise during a period of at least 30 minutes, during which a maximum of 1.5 ml of saline solution is injected in such a manner as to optimise the measurements. Only animals whose arterial pressure is higher than or equal to 170 mmHg are included in the study.
The test compounds of the carrier are administered orally and the measurements are carried out before the treatment and every ten minutes after treatment, for 4 hours, and then 8 and 24 hours after treatment.

As to `Cc1ccc2c(c1)N(C)CC(C1=NCCN1)O2` (stereo not drawn) [Example 2, 2-(4,5-Dihydro-1H-2-imidazolyl)-4,6-dimethyl-3,4-dihydro-2H-1,4-benzoxazineoxalate], the Ki came to 22 nM in assay [1] and 2 nM in assay [2]. In addition, the “effect on arterial pressure” value in assay [3] is recorded as “allowed the arterial pressure to be normalized”.
